“Also recorded” adds a separate entry of the source.
Key:
[1] = system: PBMCs from subjects with ulcerative colitis; test: Pro-inflammatory cytokine expression in PBMCs from subjects with ulcerative colitis (cytometric bead array); type: cell-based, human
Excerpt: The anti-inflammatory effect of Compound A in PBMCs from subjects with ulcerative colitis was studied. The expression of pro-inflammatory cytokines IL-1β, IL 6, IL-8, IL-10 and TNF-α was investigated using a cytometric bead array (CBA).

CD4+ T cells = test: Differentiation of CD4+ T cells (Th1, Th17, Treg); type: cell-based
Excerpt: Th1 and Th17 cells are main players contributing to organ specific autoimmune disease and inflammation.

[2] = system: IMQ-induced psoriasis-like inflammation; test: Imiquimod (IMQ)-induced psoriasis-like dermal inflammation; type: in vivo; details: BALB/c mice
Excerpt: The anti-inflammatory activity of Compound A in the imiquimod (IMQ)-induced psoriasis-like dermal inflammation in BALB/c mice was investigated.

[3] = system: house dust-induced atopic dermatitis; test: House dust-induced atopic dermatitis model; type: in vivo, mice
Excerpt: The potential anti-inflammatory and anti-pruritic effects of Compound A were investigated in a house dust-induced atopic dermatitis model in mice.

[4] = system: Collagen-Induced Arthritis; test: Collagen-Induced Arthritis Model; type: in vivo, DBA/1 mice; details: 60 mg/kg once daily, vs vehicle only treated animals
Procedure: Furthermore, the efficacy of Compound A in the Collagen-Induced Arthritis Model in DBA/1 mice was tested. Immunization with Type II Chicken Collagen led to the development of arthritis. In comparison with vehicle only treated animals, mice treated once daily with 60 mg/kg Compound A led to a reduction in arthritis index scores, paw measurements, and histopathology scores.

[5] = oral 30 mg/kg/day QD or BID x 21 days, in comparison with controls

SMILES: CCNc1cc(Nc2ccc(C(=O)N3CCC(N4CCOCC4)CC3)cc2OC)nc2[nH]cc(C(F)(F)F)c12 [Compound A, (4-((4-(ethylamino)-3-(trifluoromethyl)-1H-pyrrolo[2,3-b]pyridin-6-yl)amino)-3-methoxyphenyl)(4-morpholinopiperidin-1-yl)methanone]
- expression of pro-inflammatory cytokines IL-1β, IL 6, IL-8, IL-10 and TNF-α [1]: reducing pro inflammatory cytokines in PBMCs; also recorded: statistically significant reduction
- development of Treg cells (CD4+ T cells): enhanced the development of Treg cells; also recorded: enhancing the development of Treg cells
- differentiation of Th1 and Th17 cells (CD4+ T cells): inhibiting the differentiation of Th1 and Th17 cells; also recorded: inhibition of Th1 and Th7 cells
- IMQ-induced psoriasis-like inflammation (ear swelling) ([2]; 45 mg/kg PO BID x 9 days): significantly (p<0.05) protective effects
- IMQ-induced psoriasis-like inflammation (ear swelling) ([2]; 60 mg/kg PO BID x 9 days): significantly (p<0.05) protective effects
- T cell subset levels in the skin (immunohistochemical staining) ([3]; in comparison with vehicle controls and the positive control abrocitinib): decreased all subset levels in the skin
- IL-4 level in the skin [3, 5]: markedly reduced
- IL-13 level in the skin [3, 5]: markedly reduced
- IL-17 level in the skin [3, 5]: markedly reduced
- arthritis index scores [4]: reduction
- histopathology scores [4]: reduction
- paw measurements [4]: reduction

Source: US20250339442A1, “METHODS OF TREATMENT USING A DUAL SPECIFICITY TYROSINE-PHOSPHORYLATION-REGULATED KINASE 1A (DYRK1A) INHIBITOR” (Fresh Tracks Therapeutics, Inc., priority 2022, published 2025)
